Data taken from patent US8455467B2, “2-methylene-vitamin D analogs and their uses” (Wisconsin Alumni Research Foundation, priority 2011, dated 2013).

Tests used:
[1] = target: T1, full-length recombinant rat vitamin D receptor (Rattus norvegicus, UniProt P13053); experiment: Vitamin D receptor competitive binding with [3H]-1,25(OH)2D3; conditions: full-length recombinant rat VDR; for Ki: 1 nM radioligand, read-out: Ki, competition with [3H]-1,25(OH)2D3 for binding to the vitamin D receptor; for binding affinity to the receptor compared to 1,25-(OH)2D3: in words
T1 construct: Full-length recombinant rat receptor was expressed in E. coli BL21 (DE3) Codon Plus RIL cells; His tag (histidine tag) (C); made in house; host or cells: E. coli BL21 (DE3) Codon Plus RIL
T1 sequence (P13053 1-423): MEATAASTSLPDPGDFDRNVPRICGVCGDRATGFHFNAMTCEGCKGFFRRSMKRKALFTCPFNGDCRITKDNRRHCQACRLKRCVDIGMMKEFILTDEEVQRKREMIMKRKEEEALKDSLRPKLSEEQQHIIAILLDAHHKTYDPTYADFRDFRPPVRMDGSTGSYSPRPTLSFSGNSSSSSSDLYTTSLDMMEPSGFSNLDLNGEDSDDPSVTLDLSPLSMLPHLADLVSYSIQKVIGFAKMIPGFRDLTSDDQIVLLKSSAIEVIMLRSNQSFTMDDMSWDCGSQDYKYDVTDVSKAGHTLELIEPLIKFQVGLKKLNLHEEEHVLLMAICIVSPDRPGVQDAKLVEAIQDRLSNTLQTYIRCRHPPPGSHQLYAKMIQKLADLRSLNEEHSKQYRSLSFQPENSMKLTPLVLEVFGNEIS
Experimental: Full-length recombinant rat receptor was expressed in E. coli BL21 (DE3) Codon Plus RIL cells and purified to homogeneity using two different column chromatography systems. The first system was a nickel affinity resin that utilizes the C-terminal histidine tag on this protein. The protein that was eluted from this resin was further purified using ion exchange chromatography (S-Sepharose Fast Flow). Aliquots of the purified protein were quick frozen in liquid nitrogen and stored at −80° C. until use. For use in binding assays, the protein was diluted in TEDK50 (50 mM Tris, 1.5 mM EDTA, pH7.4, 5 mM DTT, 150 mM KCl) with 0.1% Chaps detergent. The receptor protein and ligand concentration was optimized such that no more than 20% of the added radiolabeled ligand was bound to the receptor.
Radiolabeled and unlabeled ligands were added to 100 mcl of the diluted protein at a final ethanol concentration of ≦10%, mixed and incubated overnight on ice to reach binding equilibrium. The following day, 100 mcl of hydroxylapatite slurry (50%) was added to each tube and mixed at 10-minute intervals for 30 minutes. The hydroxylapaptite was collected by centrifugation and then washed three times with Tris-EDTA buffer (50 mM Tris, 1.5 mM EDTA, pH 7.4) containing 0.5% Titron X-100. After the final wash, the pellets were transferred to scintillation vials containing 4 ml of Biosafe II scintillation cocktail, mixed and placed in a scintillation counter. Total binding was determined from the tubes containing only radiolabeled ligand.

[2] = test system: Human promyelocytic leukemia (HL60) cells; experiment: HL-60 cell differentiation (nitro blue tetrazolium reduction); assay type: cell-based; conditions: for EC50: 4 days treatment, NBT reduction; for potency on HL-60 cell differentiation compared to 1,25(OH)2D3: in words
Experimental: Serial dilutions were prepared so that a range of drug concentrations could be tested without changing the final concentration of ethanol 0.2%) present in the cell cultures.
Human promyelocytic leukemia (HL60) cells were grown in RPMI-1640 medium containing 10% fetal bovine serum. The cells were incubated at 37° C. in the presence of 5% CO2.
HL60 cells were plated at 1.2×10^5 cells/ml. Eighteen hours after plating, cells in duplicate were treated with drug. Four days later, the cells were harvested and a nitro blue tetrazolium reduction assay was performed (Collins et al., 1979; J. Exp. Med. 149:969-974). The percentage of differentiated cells was determined by counting a total of 200 cells and recording the number that contained intracellular black-blue formazan deposits. Verification of differentiation to monocytic cells was determined by measuring phagocytic activity (data not shown).

[3] = Bone calcium mobilization (serum calcium) in vitamin D-deficient rats; assay type: in vivo, rat; conditions: 0.02% Ca diet; for bone calcium mobilization (serum calcium) at 87 pmol: 87 pmol/day for 4 consecutive days; for bone calcium mobilization activity (serum calcium): 4 consecutive ip doses, overall, compared to 1,25(OH)2D3; for bone calcium mobilization (serum calcium) at 780 pmol: 780 pmol/day for 4 consecutive days
Experimental: (§1) Male, weanling Sprague-Dawley rats were placed on Diet 11 (Suda et al, J. Nutr. 100:1049, 1970) (0.47% Ca)+vitamins AEK for one week followed by Diet 11 (0.02% Ca)+vitamins AEK for 3 weeks. The rats were then switched to the same diet containing 0.47% Ca for one week followed by two weeks on the same diet containing 0.02% Ca. Dose administration began during the last week on 0.02% calcium diet. Four consecutive ip doses were given approximately 24 hours apart. Twenty-four hours after the last dose, blood was collected from the severed neck and the concentration of serum calcium determined by atomic absorption spectrometry as a measure of bone calcium mobilization. The first 10 cm of the intestine was also collected for intestinal calcium transport analysis using the everted gut sac method.

[4] = Intestinal calcium transport (everted gut sac method) in vitamin D-deficient rats; assay type: in vivo, rat; conditions: 0.02% Ca diet, 4 consecutive ip doses, compared to 1,25(OH)2D3
Experimental: as §1

Row | SMILES | Ki [1] [nM] | binding affinity to the receptor compared to 1,25-(OH)2D3 [1] | EC50 ([2]; Homo sapiens, HL-60, 96 h) [nM] | potency on HL-60 cell differentiation compared to 1,25(OH)2D3 [2] | bone calcium mobilization (serum calcium) at 87 pmol [3] | bone calcium mobilization activity (serum calcium) [3] | bone calcium mobilization (serum calcium) at 780 pmol [3] | intestinal calcium transport activity [4] | EC50 [2] [nM]
1 | C=C1CC(=C)[C@H](O)C/C1=C/C=C1\CCC[C@]2(C)[C@@H]([C@H](C)CCCC(C)(C)O)CC[C@@H]12 [1D-QM, (20R)-25-hydroxy-2-methylene-vitamin D3] | 0.9 | about the same affinity | > 100 | almost as potent as 1,25(OH)2D3 | little or no mobilization of bone calcium | less potent than the native hormone |  |  | 
2 | C=C1CC(=C)[C@H](O)C/C1=C/C=C1\CCC[C@]2(C)[C@@H]([C@@H](C)CCCC(C)(C)O)CC[C@@H]12 [1D-QMS, (20S)-25-hydroxy-2-methylene-vitamin D3] | 0.2 | about the same affinity | 10 | almost as potent as 1,25(OH)2D3 |  | about the same potency as the native hormone | significant mobilization of bone calcium | about equivalent to 1,25(OH)2D3 | 
3 | C=C1/C(=C\C=C2/CCC[C@]3(C)[C@@H]([C@H](C)CCCC(C)(C)O)CC[C@@H]23)C[C@@H](O)C[C@@H]1O [1α,25-dihydroxyvitamin D3, reference compound] |  |  |  |  | significant increases in serum calcium | increased serum calcium levels | significant increases in serum calcium |  | 3
